From US6479499B1 come the findings set out here.

Assay [1] relates to ileocecal carcinoma (HCT-8). In words: In vitro cytotoxicity, HCT-8. Conditions: Homo sapiens, HCT-8, 96 h, read-out: ED50 HCT-8.
Assay [2] has as its system ten human tumor cell lines. Briefly: In vitro cytotoxicity, statements on the panel of tumor cell lines.
A further assay has as its system melanoma (SKMEL-2). Briefly: In vitro cytotoxicity, SKMEL-2. The conditions noted are these: for IC50: SK-MEL-2, 96 h, read-out: ED50 SKMEL-2.
In assay [3] the test system is human ovarian cancer (1A9). Briefly: In vitro cytotoxicity, 1A9. The conditions noted are these: 96 h, read-out: ED50 1A9.
Another assay concerns lung carcinoma (A-549). Briefly: In vitro cytotoxicity, A-549. Conditions: Homo sapiens, A549, 96 h, read-out: ED50 A-549.
Another assay relates to bone (HOS). In words: In vitro cytotoxicity, HOS. Conditions: Homo sapiens; for IC50: 96 h, read-out: ED50 HOS.
The subject of a further assay is glioblastoma (U-87-MG). In words: In vitro cytotoxicity, U-87-MG. The conditions noted are these: Homo sapiens; for IC50: 96 h, read-out: ED50 U-87-MG; for inhibition at 20 µg/mL: read-out: Inhibition at highest test concentration (in brackets), U-87-MG.
In assay [4] the test system is P-gp-expressing epidermoid carcinoma of the nasopharynx (KB-VIN). Briefly: In vitro cytotoxicity, KB-VIN. The conditions noted are these: Homo sapiens, KBVIN, 96 h, read-out: ED50 KB-VIN.
The subject of another assay is breast cancer (MCF-7). Briefly: In vitro cytotoxicity, MCF-7. The conditions noted are these: Homo sapiens; for IC50: MCF7, 96 h, read-out: ED50 MCF-7.
The subject of the next assay is prostate cancer (PC3). In words: In vitro cytotoxicity, PC3. Conditions: Homo sapiens; for IC50: 96 h, read-out: ED50 PC3.
Assay [5] relates to epidermoid carcinoma of the nasopharynx (KB). Briefly: In vitro cytotoxicity, KB. The conditions noted are these: Homo sapiens, 96 h, read-out: ED50 KB.
The next assay deals with bovine brain tubulin. Briefly: Tubulin polymerization assay (antimicrotubule assay). Conditions: read-out: ITP (inhibition of tubulin polymerization) IC50; tubulin […] (12 μM), 26° C., 20 min.

SMILES strings stand for the structures. Converted amounts (≈) assume the structure as drawn. Bounds are passed on as bounds.

For `COc1cccc(C2NC(=O)c3ccccc3N2)c1` (racemic) [Compound 61, 2,3-Dihydro-2-(3′-methoxyphenyl)-4-quinazolinone], the IC50 was 1.5 µg/mL (≈ 5.9 µM) in assay [1]; above 20 µg/mL with melanoma (SKMEL-2) (Homo sapiens); 1 µg/mL (≈ 3.93 µM) in [3]; 3 µg/mL (≈ 11.8 µM) with lung carcinoma (A-549); above 20 µg/mL in the assay on bone (HOS); above 20 µg/mL with glioblastoma (U-87-MG). Further, the IC50 in [4] is 1.2 µg/mL (≈ 4.72 µM); with breast cancer (MCF-7), above 20 µg/mL; in the assay with prostate cancer (PC3), above 20 µg/mL; in assay [5], 3 µg/mL (≈ 11.8 µM); in the assay with bovine brain tubulin it was 5.6 ± 1 µM. Besides, the “Times more active than 2′-methoxy (60)” value in [2] (more sensitive cell lines) is “about 15 times”. In [2] (more sensitive cell lines), the “Times more active than 4′-methoxy (62)” value was around 20 times. For the same compound, the inhibition at 20 µg/mL in the assay on melanoma (SKMEL-2) (Homo sapiens, SK-MEL-2, read-out: Inhibition at highest test concentration (in brackets), SKMEL-2) was 49%; in the assay on bone (HOS) (read-out: Inhibition at highest test concentration (in brackets), HOS), 42%; in the assay on glioblastoma (U-87-MG) it was 35%; in the assay on breast cancer (MCF-7) (MCF7, read-out: Inhibition at highest test concentration (in brackets), MCF-7), 48%; in the assay with prostate cancer (PC3) (read-out: Inhibition at highest test concentration (in brackets), PC3), 43%.
With `COc1cccc(C2NC(=O)c3cc(Cl)ccc3N2)c1` (racemic) [Compound 68, 2,3-Dihydro-2-(3′-methoxyphenyl)-6-chloro-4-quinazolinone], the IC50 in assay [1] is 0.48 µg/mL (≈ 1.66 µM); with melanoma (SKMEL-2) (Homo sapiens), below 2.5 µg/mL; in [3], 0.27 µg/mL (≈ 0.935 µM); in the assay on lung carcinoma (A-549) it was 0.6 µg/mL (≈ 2.08 µM); in the assay with bone (HOS) it was 20 µg/mL (≈ 69.3 µM); in the assay on glioblastoma (U-87-MG), above 20 µg/mL. The IC50 came out at 0.42 µg/mL (≈ 1.45 µM) in assay [4]; 16 µg/mL (≈ 55.4 µM) with breast cancer (MCF-7); 2.5 µg/mL (≈ 8.66 µM) in the assay with prostate cancer (PC3); 0.95 µg/mL (≈ 3.29 µM) in assay [5]; 1.5 ± 0.01 µM in the assay on bovine brain tubulin. Also, in [2], the “ED50, times less than that of 61” value is recorded as “about 5 times”. The “Inhibition value of plateau-dose response (in brackets), SKMEL-2” value in the assay with melanoma (SKMEL-2) (plateau-dose response, inhibition plateaus over broad dose range) was 56%. Also, the inhibition at 20 µg/mL in the assay on glioblastoma (U-87-MG) came to 37%.
